# Measured values from BindingDB's records for patent US20240109865 (Tyra Biosciences, 2024).
# Legend:
# Assay in all cases: Kinase Assay
# [1] = target: Fibroblast growth factor receptor 2 (Homo sapiens, UniProt P21802)
# Description: (§1) Kinase-tagged T7 phage strains were prepared in an E. coli host derived from the BL21 strain. E. coli were grown to log-phase and infected with T7 phage and incubated with shaking at 32° C. until lysis. The lysates were centrifuged and filtered to remove cell debris. […] The liganded beads were blocked with excess biotin and washed with blocking buffer SeaBlock (Pierce), […], 1 mM DTT to remove unbound ligand and to reduce non-specific binding. […] Kds were determined using an 11-point 3-fold compound dilution series with three DMSO control points. […] The compounds were then diluted directly into the assays such that the final concentration of DMSO was 0.9%. All reactions performed in polypropylene 384-well plate. Each was a final volume of 0.02 ml.
# [2] = target: Fibroblast growth factor receptor 1 (Homo sapiens, UniProt P11362)
# Description: as §1
# [3] = target: Fibroblast growth factor receptor 4 (Homo sapiens, UniProt P22455)
# Description: as §1
# Chain of Fibroblast growth factor receptor 1 (P11362 whole entry): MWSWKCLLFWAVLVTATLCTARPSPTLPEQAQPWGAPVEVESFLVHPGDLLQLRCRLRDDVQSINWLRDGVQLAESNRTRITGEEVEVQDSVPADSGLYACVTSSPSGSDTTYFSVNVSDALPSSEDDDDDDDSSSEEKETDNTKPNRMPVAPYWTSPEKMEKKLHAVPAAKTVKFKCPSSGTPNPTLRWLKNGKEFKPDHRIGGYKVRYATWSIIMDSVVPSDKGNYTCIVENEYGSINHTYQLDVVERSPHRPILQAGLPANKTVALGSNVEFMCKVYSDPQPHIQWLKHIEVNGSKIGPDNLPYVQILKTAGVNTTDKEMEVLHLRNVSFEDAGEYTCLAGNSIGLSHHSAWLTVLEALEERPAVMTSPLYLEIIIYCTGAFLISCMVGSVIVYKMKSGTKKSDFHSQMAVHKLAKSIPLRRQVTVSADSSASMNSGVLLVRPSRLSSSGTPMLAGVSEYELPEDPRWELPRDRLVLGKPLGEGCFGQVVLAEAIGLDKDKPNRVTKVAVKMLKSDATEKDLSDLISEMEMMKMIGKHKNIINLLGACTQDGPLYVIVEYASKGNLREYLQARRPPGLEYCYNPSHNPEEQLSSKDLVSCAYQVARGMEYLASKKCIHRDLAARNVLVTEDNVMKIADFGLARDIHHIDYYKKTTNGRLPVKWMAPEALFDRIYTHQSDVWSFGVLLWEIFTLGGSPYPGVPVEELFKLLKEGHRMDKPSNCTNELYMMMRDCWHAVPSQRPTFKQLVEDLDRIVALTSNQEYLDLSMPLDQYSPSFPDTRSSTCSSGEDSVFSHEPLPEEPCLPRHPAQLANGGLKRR
# Chain of Fibroblast growth factor receptor 2 (P21802 whole entry): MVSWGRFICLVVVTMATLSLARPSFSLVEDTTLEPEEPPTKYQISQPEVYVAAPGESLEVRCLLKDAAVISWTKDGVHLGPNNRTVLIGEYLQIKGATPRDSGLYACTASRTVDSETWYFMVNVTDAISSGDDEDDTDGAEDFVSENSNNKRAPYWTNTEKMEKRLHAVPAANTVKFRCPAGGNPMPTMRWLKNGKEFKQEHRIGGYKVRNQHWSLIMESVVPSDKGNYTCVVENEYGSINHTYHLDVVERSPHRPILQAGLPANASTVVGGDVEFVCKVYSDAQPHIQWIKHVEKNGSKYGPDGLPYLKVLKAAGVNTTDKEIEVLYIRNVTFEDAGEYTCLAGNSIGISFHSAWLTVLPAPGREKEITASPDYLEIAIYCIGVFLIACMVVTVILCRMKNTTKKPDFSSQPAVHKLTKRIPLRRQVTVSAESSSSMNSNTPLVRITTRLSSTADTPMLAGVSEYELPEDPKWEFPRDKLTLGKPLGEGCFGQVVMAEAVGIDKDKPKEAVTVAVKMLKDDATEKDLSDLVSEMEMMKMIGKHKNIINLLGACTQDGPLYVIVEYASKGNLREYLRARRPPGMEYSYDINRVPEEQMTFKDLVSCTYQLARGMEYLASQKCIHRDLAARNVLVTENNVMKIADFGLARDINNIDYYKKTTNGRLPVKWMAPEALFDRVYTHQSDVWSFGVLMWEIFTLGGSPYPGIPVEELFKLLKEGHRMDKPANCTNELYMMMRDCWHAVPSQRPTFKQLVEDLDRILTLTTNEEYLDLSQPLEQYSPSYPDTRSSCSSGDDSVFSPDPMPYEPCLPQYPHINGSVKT
# Chain of Fibroblast growth factor receptor 4 (P22455 whole entry): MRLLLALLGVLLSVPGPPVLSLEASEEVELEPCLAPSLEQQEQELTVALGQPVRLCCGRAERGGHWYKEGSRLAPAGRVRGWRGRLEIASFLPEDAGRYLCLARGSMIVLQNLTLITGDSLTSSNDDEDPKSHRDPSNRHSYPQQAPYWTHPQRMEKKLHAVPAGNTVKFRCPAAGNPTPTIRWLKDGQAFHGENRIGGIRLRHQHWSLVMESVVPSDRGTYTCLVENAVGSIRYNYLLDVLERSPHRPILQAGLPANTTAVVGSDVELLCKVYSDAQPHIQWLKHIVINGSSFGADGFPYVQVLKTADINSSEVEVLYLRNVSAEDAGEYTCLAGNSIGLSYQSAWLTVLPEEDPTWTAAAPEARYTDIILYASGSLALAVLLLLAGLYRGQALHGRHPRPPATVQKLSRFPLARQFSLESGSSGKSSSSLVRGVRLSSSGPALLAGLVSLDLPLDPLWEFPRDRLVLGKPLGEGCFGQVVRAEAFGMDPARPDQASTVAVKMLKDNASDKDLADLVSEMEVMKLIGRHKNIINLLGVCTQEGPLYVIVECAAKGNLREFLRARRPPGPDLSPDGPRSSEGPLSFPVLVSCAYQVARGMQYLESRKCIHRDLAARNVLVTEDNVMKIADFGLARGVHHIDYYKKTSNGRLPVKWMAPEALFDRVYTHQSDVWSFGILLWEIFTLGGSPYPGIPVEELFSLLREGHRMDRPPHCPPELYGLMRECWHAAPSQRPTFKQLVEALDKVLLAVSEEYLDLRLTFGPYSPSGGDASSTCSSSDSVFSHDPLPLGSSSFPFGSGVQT
Kd [1],Kd [2],Kd [3],Compound
> 300 nM,–,–,"Cc1cnnc(C)c1[C@@H](C)Oc1ccc2[nH]nc(-c3cnc(N4CCCC4)c(C#N)c3)c2c1 [US20240109865, Example 173.]"
–,> 300 nM,> 300 nM,"C[C@@H](Oc1ccc2[nH]nc(-c3ccc(N4CC5(CCOC5)C4)nc3)c2c1)c1c(Cl)cnnc1Cl [US20240109865, Example 223.]"
